Measurements published in patent publication US8003660B2, “Modulators of muscarinic receptors” (Vertex Pharmaceuticals Incorporated, priority 2006, dated 2011).
pEC50: −log10 of the molar value. Like-named read-outs stand apart in the source and are kept apart here.

Assays:
Type in all cases: cell-based
M2 muscarinic receptor = target: T1, M2 muscarinic receptor (Homo sapiens, UniProt P08172); assay: Functional mobilization of intracellular calcium (FLIPR) in CHO cells expressing M2; conditions: for pEC50: CHO cells expressing M2, FLIPR calcium; for Emax: CHO; for M2 Activity: CHO cells expressing M2, FLIPR calcium assay
T1 construct: expressed in transfected cells; host or cells: CHO (M2-CHO)
T1 sequence (P08172 1-466): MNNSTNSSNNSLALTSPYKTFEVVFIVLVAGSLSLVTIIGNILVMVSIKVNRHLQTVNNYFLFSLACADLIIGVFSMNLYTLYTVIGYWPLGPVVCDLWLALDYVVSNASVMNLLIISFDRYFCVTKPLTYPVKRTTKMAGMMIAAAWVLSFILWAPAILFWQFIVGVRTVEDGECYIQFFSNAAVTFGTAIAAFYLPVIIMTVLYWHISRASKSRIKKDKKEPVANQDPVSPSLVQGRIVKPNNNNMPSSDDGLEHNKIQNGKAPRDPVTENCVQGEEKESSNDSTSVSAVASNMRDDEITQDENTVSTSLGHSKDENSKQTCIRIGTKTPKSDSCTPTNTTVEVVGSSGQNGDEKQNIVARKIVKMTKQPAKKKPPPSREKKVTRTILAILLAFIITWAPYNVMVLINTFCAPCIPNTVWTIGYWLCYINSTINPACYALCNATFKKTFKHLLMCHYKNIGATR
Outline: (§1)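 Calcium flux is read on FLIPR over 60 sec at 488/540 nm in muscarinic-receptor CHO lines. Antagonist mode adds carbachol at EC80 after 15 min compound preincubation or with simultaneous co-application. Agonist mode adds compound alone. Cells carry Fluo-3 or Calcium 3 dye in probenecid-containing pH 7.4 buffer, 0.5% DMSO final.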

M1 muscarinic receptor = target: T2, M1 muscarinic receptor (Homo sapiens, UniProt P11229); assay: Functional mobilization of intracellular calcium (FLIPR) in CHO cells expressing M1; conditions: for pEC50: CHO cells expressing M1, FLIPR calcium; for Emax: CHO; for M1 Activity: CHO cells expressing M1, FLIPR calcium assay
T2 construct: expressed in transfected cells; host or cells: CHO (M1-CHO)
T2 sequence (P11229 1-460): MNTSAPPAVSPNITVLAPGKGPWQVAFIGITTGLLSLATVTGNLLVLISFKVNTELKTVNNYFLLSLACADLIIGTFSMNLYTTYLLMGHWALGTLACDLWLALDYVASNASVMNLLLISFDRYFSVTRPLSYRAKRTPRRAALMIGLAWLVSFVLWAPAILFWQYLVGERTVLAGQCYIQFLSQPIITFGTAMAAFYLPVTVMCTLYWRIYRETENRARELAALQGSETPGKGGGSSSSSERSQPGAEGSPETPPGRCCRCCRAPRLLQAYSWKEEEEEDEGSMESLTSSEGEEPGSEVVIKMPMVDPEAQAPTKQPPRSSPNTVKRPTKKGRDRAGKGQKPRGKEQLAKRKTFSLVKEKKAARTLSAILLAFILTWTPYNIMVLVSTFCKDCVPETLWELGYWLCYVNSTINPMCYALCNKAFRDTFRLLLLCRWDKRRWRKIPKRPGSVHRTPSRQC
Outline: as §1

M3 muscarinic receptor = target: T3, M3 muscarinic receptor (Homo sapiens, UniProt P20309); assay: Functional mobilization of intracellular calcium (FLIPR) in CHO cells expressing M3; conditions: for pEC50: CHO cells expressing M3, FLIPR calcium; for Emax: CHO; for M3 Activity: CHO cells expressing M3, FLIPR calcium assay
T3 construct: expressed in transfected cells; host or cells: CHO (M3-CHO)
T3 sequence (P20309 whole entry): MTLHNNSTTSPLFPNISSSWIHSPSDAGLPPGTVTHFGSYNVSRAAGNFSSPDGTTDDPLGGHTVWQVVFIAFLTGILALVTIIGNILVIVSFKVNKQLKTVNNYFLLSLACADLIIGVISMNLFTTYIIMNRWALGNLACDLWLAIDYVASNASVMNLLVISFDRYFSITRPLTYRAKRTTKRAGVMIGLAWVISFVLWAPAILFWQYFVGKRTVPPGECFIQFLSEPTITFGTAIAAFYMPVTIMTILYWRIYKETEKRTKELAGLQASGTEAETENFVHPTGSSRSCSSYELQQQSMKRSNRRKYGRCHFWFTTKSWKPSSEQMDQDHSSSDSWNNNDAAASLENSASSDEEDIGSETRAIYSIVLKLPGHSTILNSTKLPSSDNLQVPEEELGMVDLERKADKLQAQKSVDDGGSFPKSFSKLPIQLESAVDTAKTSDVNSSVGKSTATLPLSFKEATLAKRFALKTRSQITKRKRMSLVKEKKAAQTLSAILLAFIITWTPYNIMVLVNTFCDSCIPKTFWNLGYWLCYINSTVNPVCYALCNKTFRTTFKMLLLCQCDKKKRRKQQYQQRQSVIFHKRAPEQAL
Outline: as §1

M4 muscarinic receptor = target: T4, M4 muscarinic receptor (Homo sapiens, UniProt P08173); assay: Functional mobilization of intracellular calcium (FLIPR) in CHO cells expressing M4; conditions: for pEC50: CHO cells expressing M4, FLIPR calcium; for Emax: CHO; for M4 Activity: CHO cells expressing M4, FLIPR calcium assay
T4 construct: expressed in transfected cells; host or cells: CHO (M4-CHO)
T4 sequence (P08173 1-479): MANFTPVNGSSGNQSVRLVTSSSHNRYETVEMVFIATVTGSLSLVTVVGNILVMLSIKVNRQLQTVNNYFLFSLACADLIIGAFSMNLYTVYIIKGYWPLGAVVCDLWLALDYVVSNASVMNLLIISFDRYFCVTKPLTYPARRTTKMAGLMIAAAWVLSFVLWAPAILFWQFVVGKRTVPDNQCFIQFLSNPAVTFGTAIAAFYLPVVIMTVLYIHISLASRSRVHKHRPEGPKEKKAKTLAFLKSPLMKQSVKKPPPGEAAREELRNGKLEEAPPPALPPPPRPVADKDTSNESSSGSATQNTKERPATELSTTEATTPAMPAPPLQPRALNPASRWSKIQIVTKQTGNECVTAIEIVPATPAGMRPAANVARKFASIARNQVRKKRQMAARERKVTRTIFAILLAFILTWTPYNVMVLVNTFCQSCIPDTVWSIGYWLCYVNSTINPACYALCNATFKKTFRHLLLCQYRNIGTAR
Outline: as §1

[1] = 100% = maximum response obtained with the Carbachol control, read-out: M2 Efficacy
[2] = 100% = maximum response obtained with the Carbachol control, read-out: M1 Efficacy
[3] = 100% = maximum response obtained with the Carbachol control, read-out: M3 Efficacy
[4] = 100% = maximum response obtained with the Carbachol control, read-out: M4 Efficacy
[5] = 100% efficacy = maximum response obtained with the Carbachol control

| SMILES | pEC50 (M2 muscarinic receptor) | Emax (M2 muscarinic receptor; [1]) [%] | pEC50 (M1 muscarinic receptor) | Emax (M1 muscarinic receptor; [2]) [%] | pEC50 (M3 muscarinic receptor) | Emax (M3 muscarinic receptor; [3]) [%] | pEC50 (M4 muscarinic receptor) | Emax (M4 muscarinic receptor; [4]) [%] | M2 Activity (M2 muscarinic receptor) | Emax (M2 muscarinic receptor; [5]) [%] | M1 Activity (M1 muscarinic receptor) | Emax (M1 muscarinic receptor; [5]) [%] | M3 Activity (M3 muscarinic receptor) | Emax (M3 muscarinic receptor; [5]) [%] | M4 Activity (M4 muscarinic receptor) | Emax (M4 muscarinic receptor; [5]) [%] |
| --- | --- | --- | --- | --- | --- | --- | --- | --- | --- | --- | --- | --- | --- | --- | --- | --- |
| CC(=O)N1CCCC(C(=O)N[C@@H]2CCC3(CCN(CCC(C)(C)C)CC3)c3ccccc32)C1 (stereo partly drawn) [compound 143] | < 5.30 | < 25 | 5.30 to 5.70 | 25 to 100 | < 5.30 | < 25 | > 5.70 | 25 to 100 |  |  |  |  |  |  |  |  |
| CC(C)(C)CCN1CCC2(CC[C@@H](NC(=O)C3CCOCC3)c3ccc(F)cc32)CC1 [compound 217] |  |  |  |  |  |  |  |  | + (activity was measured to be greater than 5.0 μM) | < 25 | ++ (activity was measured to be from 2.0 μM to 5.0 μM) | 25 to 100 | + (activity was measured to be greater than 5.0 μM) | < 25 | +++ (activity was measured to be less than 2.0 μM) | 25 to 100 |
| CSC(C)CCN1CCC2(CC[C@H](NC(C)=O)c3ccccc32)CC1 (stereo partly drawn) [compound 49] | < 5.30 | < 25 | 5.30 to 5.70 | 25 to 100 | < 5.30 | < 25 | > 5.70 | 25 to 100 |  |  |  |  |  |  |  |  |
| CCCC(=O)N[C@H]1CC2(CCN(CCC(C)C)CC2)c2ccccc21 [compound 227] |  |  |  |  |  |  |  |  | + (activity was measured to be greater than 5.0 μM) | < 25 | + (activity was measured to be greater than 5.0 μM) | < 25 | + (activity was measured to be greater than 5.0 μM) | < 25 | + (activity was measured to be greater than 5.0 μM) | < 25 |
| CC#CCN(C(C)=O)[C@H]1CCC2(CCN(CCC(C)C)CC2)c2ccccc21 [compound 141] | < 5.30 | < 25 | > 5.70 | 25 to 100 | < 5.30 | < 25 | > 5.70 | 25 to 100 |  |  |  |  |  |  |  |  |
| CC(=O)N1CCCC(C(=O)N[C@H]2CCC3(CCN(CCC(C)(C)C)CC3)c3cc(F)ccc32)C1 (stereo partly drawn) [compound 59] | 5.30 to 5.70 | < 25 | > 5.70 | 25 to 100 | < 5.30 | < 25 | > 5.70 | 25 to 100 |  |  |  |  |  |  |  |  |
| COC(=O)CN1CCC2(CC1)C[C@H](NC(C)=O)c1ccccc12 [compound 233] |  |  |  |  |  |  |  |  | + (activity was measured to be greater than 5.0 μM) | < 25 | + (activity was measured to be greater than 5.0 μM) | 25 to 100 | + (activity was measured to be greater than 5.0 μM) | < 25 | + (activity was measured to be greater than 5.0 μM) | < 25 |
| CCOC(=O)N(C)[C@H]1CCC2(CCN(CCC(C)(C)C)CC2)c2ccccc21 [compound 199] |  |  |  |  |  |  |  |  | + (activity was measured to be greater than 5.0 μM) | < 25 | ++ (activity was measured to be from 2.0 μM to 5.0 μM) | < 25 | + (activity was measured to be greater than 5.0 μM) | < 25 | +++ (activity was measured to be less than 2.0 μM) | 25 to 100 |
| CN1CC(C(=O)N[C@@H]2CCC3(CCN(CCC(C)(C)C)CC3)c3ccccc32)CC1=O (stereo partly drawn) [compound 25] | < 5.30 | < 25 | < 5.30 | < 25 | < 5.30 | < 25 | > 5.70 | 25 to 100 |  |  |  |  |  |  |  |  |
| CC(C)(C)CCN1CCC2(CC[C@H](NC(=O)C3CCN(C(=O)c4ccccc4)CC3)c3ccccc32)CC1 [compound 36] | < 5.30 | < 25 | > 5.70 | 25 to 100 | < 5.30 | < 25 | > 5.70 | 25 to 100 |  |  |  |  |  |  |  |  |
| C/C=C(\C)CN1CCC2(CC1)C[C@H](NC(C)=O)c1ccccc12 [compound 238] |  |  |  |  |  |  |  |  | + (activity was measured to be greater than 5.0 μM) | < 25 | + (activity was measured to be greater than 5.0 μM) | < 25 | + (activity was measured to be greater than 5.0 μM) | < 25 | + (activity was measured to be greater than 5.0 μM) | < 25 |
| CC(=O)N[C@H]1CC2(CCN(CC(C)CCC=C(C)C)CC2)c2ccccc21 (stereo partly drawn) [compound 273] |  |  |  |  |  |  |  |  | + (activity was measured to be greater than 5.0 μM) | < 25 | +++ (activity was measured to be less than 2.0 μM) | 25 to 100 | + (activity was measured to be greater than 5.0 μM) | < 25 | +++ (activity was measured to be less than 2.0 μM) | 25 to 100 |
| C=CCCCN1CCC2(CC[C@H](NC(C)=O)c3ccccc32)CC1 [compound 172] | 5.30 to 5.70 | 25 to 100 | > 5.70 | 25 to 100 | < 5.30 | < 25 | > 5.70 | 25 to 100 |  |  |  |  |  |  |  |  |
| CC(C)(C)CCN1CCC2(CC[C@H](NC(=O)Cc3cccnc3)c3ccccc32)CC1 [compound 195] |  |  |  |  |  |  |  |  | +++ (activity was measured to be less than 2.0 μM) | 25 to 100 | +++ (activity was measured to be less than 2.0 μM) | 25 to 100 | + (activity was measured to be greater than 5.0 μM) | < 25 | +++ (activity was measured to be less than 2.0 μM) | 25 to 100 |
| Cc1ccc2c(c1)C(=O)CC21CCN(C(=O)OC(C)(C)C)CC1 [compound 252] |  |  |  |  |  |  |  |  | + (activity was measured to be greater than 5.0 μM) | < 25 | + (activity was measured to be greater than 5.0 μM) | < 25 | + (activity was measured to be greater than 5.0 μM) | < 25 | + (activity was measured to be greater than 5.0 μM) | < 25 |
| CC(CC(C)(C)C)N1CCC2(CC[C@H](NC(=O)N(C)C)c3ccccc32)CC1 (stereo partly drawn) [compound 53] | < 5.30 | < 25 | < 5.30 | < 25 | < 5.30 | < 25 | > 5.70 | 25 to 100 |  |  |  |  |  |  |  |  |
| CC(C)(C)CCN1CCC2(CCCc3ccccc32)CC1 [compound 37] | 5.30 to 5.70 | 25 to 100 | 5.30 to 5.70 | 25 to 100 | < 5.30 | < 25 | > 5.70 | 25 to 100 |  |  |  |  |  |  |  |  |
| CC(=O)N[C@H]1CCC2(CCN(CCC(C)(C)C)CC2)c2cc(F)ccc21 [compound 177] | > 5.70 | 25 to 100 | > 5.70 | 25 to 100 | < 5.30 | < 25 | > 5.70 | 25 to 100 |  |  |  |  |  |  |  |  |
